Where two headings read alike, the source gives them in different places.
Target: b-Raf (V600E) (Homo sapiens (Human), UniProt P15056, V600E)
Conditions: read-out: b-Raf IC-50, AlphaScreen
[1] = 60 min pre-incubation, 3 hours reaction
[2] = 60 min pre-incubation, reaction 3 hours at room temperature

b-Raf (V600E), sequence (P15056 whole entry V600E): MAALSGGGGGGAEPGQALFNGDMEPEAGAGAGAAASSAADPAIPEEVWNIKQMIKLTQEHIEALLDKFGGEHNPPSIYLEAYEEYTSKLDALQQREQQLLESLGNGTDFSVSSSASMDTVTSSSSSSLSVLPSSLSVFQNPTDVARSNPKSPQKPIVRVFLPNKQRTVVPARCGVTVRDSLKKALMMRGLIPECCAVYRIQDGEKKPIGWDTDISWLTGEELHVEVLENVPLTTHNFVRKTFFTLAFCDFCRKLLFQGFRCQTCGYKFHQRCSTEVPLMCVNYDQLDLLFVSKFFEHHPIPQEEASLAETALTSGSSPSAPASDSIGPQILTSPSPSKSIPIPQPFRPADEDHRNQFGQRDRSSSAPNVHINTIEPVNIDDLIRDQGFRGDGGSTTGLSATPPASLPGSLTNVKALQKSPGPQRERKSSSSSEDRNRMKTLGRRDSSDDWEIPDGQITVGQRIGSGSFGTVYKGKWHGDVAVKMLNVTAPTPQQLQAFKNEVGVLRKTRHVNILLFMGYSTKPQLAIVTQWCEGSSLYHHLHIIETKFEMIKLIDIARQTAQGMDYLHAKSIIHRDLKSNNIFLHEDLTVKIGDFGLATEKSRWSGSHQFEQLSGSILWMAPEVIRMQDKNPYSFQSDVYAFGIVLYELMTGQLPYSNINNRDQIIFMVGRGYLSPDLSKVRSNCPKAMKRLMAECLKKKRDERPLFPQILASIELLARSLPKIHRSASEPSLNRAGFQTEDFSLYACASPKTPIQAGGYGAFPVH

SMILES	IC50 [1] [nM]	IC50 (Table 2, 3 hours reaction) [nM]	also measured
Cc1ccc(NC(=O)c2cccc(C(F)(F)F)c2)cc1-c1nc(N2CCOCC2)c2cccnc2n1 [Example 833, N-(4-methyl-3-(4-morpholinopyrido[2,3-d]pyrimidin-2-yl)phenyl)-3-(trifluoromethyl)benzamide]	1.7	–	–
CCOc1ncc(-c2cc(C(=O)Nc3ccnc(C(F)(F)F)c3)ccc2C)cc1N1CCOCC1 [Example 306, 3-(6-ethoxy-5-morpholinopyridin-3-yl)-4-methyl-N-(2-(trifluoromethyl)pyridin-4-yl)benzamide]	–	1.1	–
Cc1ncc(NC(=O)c2cc(C(C)(C)C#N)ccn2)cc1-c1cnc(OC(C)C)c(N2CCOCC2)c1 [Example 958, 4-(2-cyanopropan-2-yl)-N-(6′-isopropoxy-2-methyl-5′-morpholino-[3,3′-bipyridin]-5-yl)picolinamide]	–	–	IC50 [2]: 9.15 nM
CCNc1nc(-c2cc(NC(=O)c3cnnc(C(C)(C)C#N)c3)cnc2C)cc(N2CCOCC2)n1 [Example 730, 6-(2-cyanopropan-2-yl)-N-(5-(2-(ethylamino)-6-morpholinopyrimidin-4-yl)-6-methylpyridin-3-yl)pyridazine-4-carboxamide]	27.2	–	–
Cc1ccc(NC(=O)c2cccc(C(F)(F)F)c2)cc1-c1nc2c(c(N3CCOCC3)n1)CNC2 [Example 836, N-(4-methyl-3-(4-morpholino-6,7-dihydro-5H-pyrrolo[3,4-d]pyrimidin-2-yl)phenyl)-3-(trifluoromethyl)benzamide]	3.1	–	–
Cc1ccc(NC(=O)c2cccc(C(F)(F)F)c2)cc1-c1cc(N2CCOCC2)ncn1 [Example 1, N-(4-methyl-3-(6-morpholinopyrimidin-4-yl)phenyl)-3-(trifluoromethyl)benzamide]	–	0.3	–
Cc1ncc(NC(=O)c2ccnc(C(C)C)c2)cc1-c1cnc(C#N)c(N2CCOCC2)c1 [Example 251, N-(6′-cyano-2-methyl-5′-morpholino-[3,3′-bipyridin]-5-yl)-2-isopropylisonicotinamide]	–	3.1	–
Cc1ccc(NC(=O)c2ccnc(C(F)F)c2)cc1-c1cc(N2CCOCC2)n(C)c(=O)c1 [Example 486, 2-(difluoromethyl)-N-(4-methyl-3-(1-methyl-6-morpholino-2-oxo-1,2-dihydropyridin-4-yl)phenyl)isonicotinamide]	1.1	–	–
COCCOc1nnc(-c2cc(NC(=O)c3ccnc(C(C)(F)F)c3)ccc2C)cc1N1CCOCC1 [Example 597, 2-(1,1-difluoroethyl)-N-(3-(6-(2-methoxyethoxy)-5-morpholinopyridazin-3-yl)-4-methylphenyl)isonicotinamide]	0.5	–	–
Cc1ncc(N(C)C(=O)c2cccc(C(F)(F)F)c2)cc1-c1cnc(OC2CCOCC2)c(N2CCOCC2)c1 [Example 328, N-methyl-N-(2-methyl-5′-morpholino-6′-((tetrahydro-2H-pyran-4-yl)oxy)-[3,3′-bipyridin]-5-yl)-3-(trifluoromethyl)benzamide]	–	62.4	–
Cc1ncc(NC(=O)c2ccnc(C(C)(C)C#N)c2)cc1-c1cc(N2CCOCC2)c(=O)n(C)c1 [Example 141, 2-(2-cyanopropan-2-yl)-N-(1′,2-dimethyl-5′-morpholino-6′-oxo-1′,6′-dihydro-[3,3′-bipyridin]-5-yl)isonicotinamide]	–	47.5	–
Cc1ccc(NC(=O)c2cccc(C(F)F)c2)cc1-c1cc(N2CCOCC2)c(=O)n(C)n1 [Example 655, 3-(difluoromethyl)-N-(4-methyl-3-(1-methyl-5-morpholino-6-oxo-1,6-dihydropyridazin-3-yl)phenyl)benzamide]	2.2	–	–
Cc1ccc(NC(=O)c2ccnc(C(F)F)c2)cc1-c1cc(NCCO)nc(N2CCOCC2)c1 [Example 1053, 2-(difluoromethyl)-N-(3-(2-((2-hydroxyethyl)amino)-6-morpholinopyridin-4-yl)-4-methylphenyl)isonicotinamide]	–	–	IC50 [2]: 0.86 nM
Cc1ncc(NC(=O)c2ccnc(C(C)(F)F)c2)cc1-c1cnc(N(C)C)c(N2CCOCC2)c1 [Example 267]	–	1.1	–
